Assay results reported in US20010038824A1, “Intranasal cyclic peptide formulations” (priority 2000, published 2001).
Numbered stars: 1 amine (or outer) side, 2 acyl side, 3 side chain; on linkers, the order of the positions; unused ones are H or OH. Bridge positions count the residues as written; N and C are the ends. Square brackets hold non-standard residues; d marks the D form. Peptide text beside a SMILES is read from it. ξ: configuration not given here. Hexadecanoyl(3R-amino) = CCCCCCCCCCCCC[C@H](CC(=O)[*:2])N[*:1]; ξTyr(3-NO2) = NC(Cc1ccc(O)c([N+](=O)[O-])c1)C(=O)O; X16 = NCC(=O)Nc1cc(CC(N[*:1])C(=O)[*:2])ccc1O; X4 = CCCCCCCCCCCCC[C@H](CC(=O)[*:1])O[*:2]; X2 = NC(=O)CC(O)C(N[*:1])C(=O)[*:2]; X12 = CN(C)CCCC(N[*:1])C(=O)[*:2]; X1 = O=C(C1C(O)CCN1[*:1])[*:2]; ξOrn(3-OH) = NCCC(O)C(N)C(=O)O; ξY = NC(Cc1ccc(O)cc1)C(=O)O; ξHyp = O=C(O)C1CC(O)CN1; ξOrn = NCCCC(N)C(=O)O; ξT = CC(O)C(N)C(=O)O; ξV = CC(C)C(N)C(=O)O; ξP = O=C(O)C1CCCN1; ξA = CC(N)C(=O)O; Sar = CNCC(=O)O

Columns and labels:
Type in all cases: cell-based
mouse hepatocytes = assay: In vitro hepatotoxicity test; details: mouse hepatocyte monolayers, 1 day exposure, morphological evaluation
From the text: The mouse hepatocytes were isolated by a collagenase digestion and cultured in microtest plates. The hepatocyte monolayers were exposed to the test Aerothricins in the culture system for 1 day. After the culture period, the hepatocytes were observed under a microscope and evaluated morphologically. The degree of the morphological alteration (degeneration) of the hepatocytes by the test Aerothricins were compared with WF11243 and LY303366.

Candida albicans CY1002 = assay: In vitro antifungal activity, broth micro-dilution; details: YNB medium, 1-2 days at 35° C.
Protocol: (§1) The in vitro antifungal activities of the representative Aerothricins of the present study were evaluated by determining the 50% inhibitory concentration (IC50), which was calculated as the lowest concentration of an antifungal to inhibit the growth of fungus to […] turbidity compared with the drug-free control growth spectrophotometrically.
(§2) The IC50 values were determined by the broth micro-dilution procedure based on NCCLS Approved Standard with the following minor modifications (National Committee for Clinical Laboratory Standards. (1997) Reference method for broth dilution antifungal susceptibility testing for yeasts. Approved standard. Document M27-A). Yeast Nitrogen Base (YNB; Difco Lab.) supplemented with 1% glucose and 0.25% K2HPO4 was used as testing medium for yeast, the same medium solidified with 0.2% low melting point agarose (BRL) was used for filamentous fungi. Inoculum size was 1-3×10^4 cells/ml, and incubation was performed for 1-2 days at 35° C.

Fusarium solani CF1088 = assay: In vitro antifungal activity, broth micro-dilution; details: YNB medium with 0.2% agarose, 1-2 days at 35° C.
Protocol: as §1, §2

[1] = system: Aspegillus fumigatus CF1003; assay: In vitro antifungal activity, broth micro-dilution; details: YNB medium with 0.2% agarose, 1-2 days at 35° C.
Protocol: as §1, §2

CCCCCCCCCCOc1ccc(CC[C@@H]2CC(=O)NC(C(C)O)C(=O)NC(C)C(=O)NC(Cc3ccc(O)cc3)C(=O)NC(C(C)C)C(=O)N3CC(O)CC3C(=O)NC(C(C)O)C(=O)NC(C(C)O)C(=O)N3CCC(O)C3C(=O)NC(C(O)CC(N)=O)C(=O)NCC(=O)NC(C(C)O)C(=O)NC(CCCN)C(=O)N2)cc1 (single isomer, unassigned) [Aerothricin 47] was tested, and the Cytotoxicity to hepatocyte (mouse hepatocytes) was >100 µg/mL.

CCCCCCCCCCCCC[C@@H]1CC(=O)NC(C(C)O)C(=O)NC(C)C(=O)NC(Cc2ccc(OC)cc2)C(=O)NC(C(C)C)C(=O)N2CC(O)CC2C(=O)NC(C(C)O)C(=O)NC(C(C)O)C(=O)N2CCC(O)C2C(=O)NC(C(O)CC(N)=O)C(=O)NCC(=O)NC(C(C)O)C(=O)NC(CCCN(C)C)C(=O)O1 (stereo partly shown) [Aerothricin 12] ([ξT][ξA][ξY](Me)[ξV][ξHyp][ξT][ξT][X1][X2]G[ξT][X12]; linker N-C via X4) was tested, and the “In vitro Antifungal activity, IC50, Candida albicans CY1002” value (Candida albicans CY1002) was 0.09 µg/mL, the “In vitro Antifungal activity, IC50, Fusarium solani CF1088” value (Fusarium solani CF1088) was 2.20 µg/mL and the “In vitro Antifungal activity, IC50, Aspegillus fumigatus CF1003” value [1] was 0.10 µg/mL.

For CCCCCCCCCCCCC[C@@H]1CC(=O)NC(C(C)O)C(=O)NC(C)C(=O)NC(Cc2ccc(O)cc2)C(=O)NC(C(C)C)C(=O)N2CC(O)CC2C(=O)NC(C(C)O)C(=O)NC(C(C)O)C(=O)N2CCC(O)C2C(=O)NC(C(O)CC(N)=O)C(=O)NCC(=O)NC(C(C)O)C(=O)NC(CCCNC(=O)CNC)C(=O)O1 (stereo partly shown) [Aerothricin 14] ([ξT][ξA][ξY][ξV][ξHyp][ξT][ξT][X1][X2]G[ξT][ξOrn](Sar); linker N-C via X4), the Cytotoxicity to hepatocyte (mouse hepatocytes) was >100 µg/mL.

In the case of CCCCCCCCCCCCC[C@@H]1CC(=O)NC(C(C)O)C(=O)NC(C)C(=O)NC(Cc2ccc(O)cc2)C(=O)NC(C(C)C)C(=O)N2CC(O)CC2C(=O)NC(C(C)O)C(=O)NC(C(C)O)C(=O)N2CCC(O)C2C(=O)NC(C(O)CC(N)=O)C(=O)NCC(=O)NC(C(C)O)C(=O)NC(CCCNC(=O)C2CCCN2)C(=O)O1 (stereo partly shown) [Aerothricin 15] ([ξT][ξA][ξY][ξV][ξHyp][ξT][ξT][X1][X2]G[ξT][ξOrn](ξP); linker N-C via X4), the Cytotoxicity to hepatocyte (mouse hepatocytes) is reported as >100 µg/mL.

CCCCCCCCCCCCC[C@@H]1CC(=O)NC(C(C)O)C(=O)NC(C)C(=O)NC(Cc2ccc(O)c(NC(=O)CN)c2)C(=O)NC(C(C)C)C(=O)N2CC(O)CC2C(=O)NC(C(C)O)C(=O)NC(C(C)O)C(=O)N2CCC(O)C2C(=O)NC(C(O)CC(N)=O)C(=O)NCC(=O)NC(C(C)O)C(=O)NC(CCCNC(=O)CN)C(=O)O1 (stereo partly shown) [Aerothricin 21] ([ξT][ξA][X16][ξV][ξHyp][ξT][ξT][X1][X2]G[ξT][ξOrn](Gly); linker N-C via X4) was tested, and the Cytotoxicity to hepatocyte (mouse hepatocytes) was >100 µg/mL.

With CCCCCCCCCCCCC[C@@H]1CC(=O)NC(C(C)O)C(=O)NC(C)C(=O)NC(Cc2ccc(O)cc2)C(=O)NC(C(C)C)C(=O)N2CC(O)CC2C(=O)NC(C(C)O)C(=O)NC(C(C)O)C(=O)N2CCC(O)C2C(=O)NC(C(O)CCN)C(=O)NCC(=O)NC(C(C)O)C(=O)NC(CCCN)C(=O)O1 (stereo partly shown) [Aerothricin 31] ([ξT][ξA][ξY][ξV][ξHyp][ξT][ξT][X1][ξOrn(3-OH)]G[ξT][ξOrn]; linker N-C via X4) the “In vitro Antifungal activity, IC50, Candida albicans CY1002” value (Candida albicans CY1002) was 0.07 µg/mL, the “In vitro Antifungal activity, IC50, Fusarium solani CF1088” value (Fusarium solani CF1088) was 0.70 µg/mL and the “In vitro Antifungal activity, IC50, Aspegillus fumigatus CF1003” value [1] was 0.49 µg/mL.

In the case of CCCCCCCCCCCCC[C@@H]1CC(=O)NC(C(C)O)C(=O)NC(C)C(=O)NC(Cc2ccc(O)c([N+](=O)[O-])c2)C(=O)NC(C(C)C)C(=O)N2CC(O)CC2C(=O)NC(C(C)O)C(=O)NC(C(C)O)C(=O)N2CCC(O)C2C(=O)NC(C(O)CC(N)=O)C(=O)NCC(=O)NC(C(C)O)C(=O)NC(CCCN)C(=O)N1 (stereo partly drawn) [Aerothricin 39] (cyclo(G[ξT][ξOrn][Hexadecanoyl(3R-amino)][ξT][ξA][ξTyr(3-NO2)][ξV][ξHyp][ξT][ξT][X1][X2])), the “In vitro Antifungal activity, IC50, Candida albicans CY1002” value (Candida albicans CY1002) is reported as 0.09 µg/mL, the “In vitro Antifungal activity, IC50, Fusarium solani CF1088” value (Fusarium solani CF1088) is reported as 0.70 µg/mL and the “In vitro Antifungal activity, IC50, Aspegillus fumigatus CF1003” value [1] is reported as 0.17 µg/mL.
